Legend:
HA-tagged PA of FluA = conditions: read-out: IC50 (nM) PA (FluA)
HA-tagged PA from FluB = experiment: competitive ELISA, PB1 peptide / PA of FluB; type: binding, influenza B virus

MDVNPYFLFLKVPAQ [PB11-15 AT6Y, L7F]
IC50 (HA-tagged PA of FluA): 7.51 nM
IC50 (HA-tagged PA from FluB): 345 nM
